The term GI50 denotes the concentration giving 50% growth inhibition. A word on the TGI: it is the concentration giving total growth inhibition. The low end stands for greater sensitivity of the cells, the high end for lower sensitivity of the cells.

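Dose response: 5 concentrations. Exposure: 48 h. Format: 96-well plates. Endpoint: linear interpolation; highest concentration if not reached. GI50 = concentration required for 50% inhibition of growth. TGI: total growth inhibition.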

One assay relates to NCI/ADR-RES ovarian. Briefly: DTP human tumour cell line panel, 48 h.
As to `N=C(N)c1ccc(-c2ccc(-c3cc(Cl)cc(Cl)c3)o2)nc1`, the GI50 was 1.93 µM and the total growth inhibition concentration (TGI) stood at 3.81 µM.

`CCOC(=O)CSc1nc(N)c2c(-c3ccc(OC)c(OC)c3)c3c(nc2n1)CCCC3` had a concentration for total growth inhibition (TGI) of over 100 µM.

As to `CNC(=O)OC(C)CN1c2ccccc2Sc2ccc(Cl)cc21` (stereo not drawn), the TGI was over 10 µM.

With `O=C(CCCCCCC(=O)Nc1ccc(N(CCCl)CCCl)cc1)NO`, the GI50 is 5.4 µM and the concentration for total growth inhibition (TGI) is over 100 µM.

Turning to `CN1CC[C@@]2(c3cccc(O)c3)CC(=O)/C(=C/c3ccccc3)[C@H]1C2`, the total growth inhibition concentration (TGI) is 24.5 µM.

With `O=C(N/N=C(/c1ccccc1)C(F)(F)F)c1ccncc1`, the total growth inhibition concentration (TGI) is over 100 µM.

`O=S(=O)(O)c1ccc2cccc(N=Nc3c(O)ccc4ccccc34)c2c1` registered a concentration for total growth inhibition (TGI) of over 100 µM.

As for `COc1ccc2nc(-c3ccc(-c4noc(-c5cc(OC)c(OC)c(OC)c5)n4)cc3)[nH]c2c1`, the GI50 was 3.32 µM and the TGI was found to be 23.6 µM.

In the case of `COc1ccc(/C(=C2/O[C@@H]([C@H]3COC(C)(C)O3)[C@H]3OC(C)(C)O[C@@H]23)c2cc(OC)c(OC)c(OC)c2)cc1O`, the GI50 was 3.11 µM and the total growth inhibition concentration (TGI) turned out to be 8.85 µM.

On to `Cn1c(=O)c2c(nc(-n3nc(-c4ccc(Cl)cc4)cc3N)n2C)n(C)c1=O`, for which the total growth inhibition concentration (TGI) is over 100 µM.

Molecule `N=c1c2c(C(N)=O)cn(C3OC(CO)C(O)C3O)c2ncn1O` (stereo not drawn) displayed a total growth inhibition concentration (TGI) of 0.447 µM.

`CCS(=O)(=O)Nc1ccc(Nc2c3ccccc3nc3ccccc23)c(OC)c1` came in with a TGI of 20.6 µM.

`Cc1nc(N)nc(N)c1-c1ccc(Cl)c(Cl)c1` showed a TGI of over 100 µM.

Molecule `Cc1cccc2nc3c(C(=O)NCCN(C)C)cccc3cc12` showed a TGI of 6.23 µM.

Molecule `C[C@]12CC[C@@H]3c4ccc(OP(=O)(O)O)cc4CC[C@H]3[C@@H]1CCC2=O` displayed a TGI of over 100 µM.

Turning to `CCSCCC(N)C(=O)O` (stereo not drawn), the TGI is over 100 µM.

`COc1ccc2nc(N/N=C/C(C)=N/Nc3cc(C)c4cc(OC)ccc4n3)cc(C)c2c1` came in with a TGI of 46.1 µM.

On to `CN(C)CC(=O)Nc1ccc(Cn2nnc3c2C(=O)c2nnn(Cc4ccc(NC(=O)CN(C)C)cc4)c2C3=O)cc1`, for which the GI50 is over 100 µM and the TGI was over 100 µM.

The subject of another assay is OVCAR-3 ovarian. Briefly: DTP human tumour cell line panel, 48 h.
For the molecule `CCN(CC)CC(C)Nc1ccc([N+](=O)[O-])c2sc3ccccc3c(=O)c12` (stereo not drawn), the GI50 is 2.88 µM and the total growth inhibition concentration (TGI) stood at 11.5 µM.

For `N=C(N)c1ccc(-c2ccc(-c3cc(Cl)cc(Cl)c3)o2)nc1`, the GI50 was 1.88 µM and the concentration for total growth inhibition (TGI) worked out at 3.39 µM.

`CCOC(=O)CSc1nc(N)c2c(-c3ccc(OC)c(OC)c3)c3c(nc2n1)CCCC3` had a concentration for total growth inhibition (TGI) of over 100 µM.

`CNC(=O)OC(C)CN1c2ccccc2Sc2ccc(Cl)cc21` (stereo not drawn) yielded a TGI of over 10 µM.

As to `O=C(CCCCCCC(=O)Nc1ccc(N(CCCl)CCCl)cc1)NO`, the GI50 was 1.92 µM and the TGI amounted to 6.66 µM.

With `O=C(N/N=C(/c1ccccc1)C(F)(F)F)c1ccncc1`, the TGI is over 100 µM.

Molecule `ONc1ncnc2nc[nH]c12` displayed a TGI of over 100 µM.

Molecule `CCCc1[nH]c(SCCCCCCCCSc2nc(-c3ccc(F)cc3)c(CCC)[nH]2)nc1-c1ccc(F)cc1` gave a concentration for total growth inhibition (TGI) of 12.9 µM.

The molecule `O=S(=O)(O)c1ccc2cccc(N=Nc3c(O)ccc4ccccc34)c2c1` showed a concentration for total growth inhibition (TGI) of over 100 µM.

Consider `COc1ccc2nc(-c3ccc(-c4noc(-c5cc(OC)c(OC)c(OC)c5)n4)cc3)[nH]c2c1`, for which the GI50 is 4.25 µM and the total growth inhibition concentration (TGI) was 12.9 µM.

For the molecule `COc1ccc(/C(=C2/O[C@@H]([C@H]3COC(C)(C)O3)[C@H]3OC(C)(C)O[C@@H]23)c2cc(OC)c(OC)c(OC)c2)cc1O`, the GI50 was 4.84 µM and the total growth inhibition concentration (TGI) was 43.3 µM.

On to `Cn1c(=O)c2c(nc(-n3nc(-c4ccc(Cl)cc4)cc3N)n2C)n(C)c1=O`, for which the total growth inhibition concentration (TGI) is over 100 µM.

Molecule `N=c1c2c(C(N)=O)cn(C3OC(CO)C(O)C3O)c2ncn1O` (stereo not drawn) displayed a TGI of 0.943 µM.

For `CCS(=O)(=O)Nc1ccc(Nc2c3ccccc3nc3ccccc23)c(OC)c1`, the total growth inhibition concentration (TGI) was 6.05 µM.

Consider `Cc1nc(N)nc(N)c1-c1ccc(Cl)c(Cl)c1`, for which the TGI was over 49 µM.

For the molecule `Cc1cccc2nc3c(C(=O)NCCN(C)C)cccc3cc12`, the TGI came out at 7.5 µM.

For `C[C@]12CC[C@@H]3c4ccc(OP(=O)(O)O)cc4CC[C@H]3[C@@H]1CCC2=O`, the TGI was over 100 µM.

Take `CCSCCC(N)C(=O)O` (stereo not drawn): the TGI was over 100 µM.

`COc1ccc2nc(N/N=C/C(C)=N/Nc3cc(C)c4cc(OC)ccc4n3)cc(C)c2c1` gave a total growth inhibition concentration (TGI) of 53.6 µM.

Regarding `CN(C)CC(=O)Nc1ccc(Cn2nnc3c2C(=O)c2nnn(Cc4ccc(NC(=O)CN(C)C)cc4)c2C3=O)cc1`, the GI50 was 0.0318 µM and the total growth inhibition concentration (TGI) turned out to be 0.132 µM.

For a further assay, the system named is RXF 393 renal. Briefly: DTP human tumour cell line panel, 48 h.
As to `CCN(CC)CC(C)Nc1ccc([N+](=O)[O-])c2sc3ccccc3c(=O)c12` (stereo not drawn), the GI50 is 1.65 µM and the concentration for total growth inhibition (TGI) was found to be 5.71 µM.

The molecule `CCOC(=O)CSc1nc(N)c2c(-c3ccc(OC)c(OC)c3)c3c(nc2n1)CCCC3` yielded a total growth inhibition concentration (TGI) of over 100 µM.

`CNC(=O)OC(C)CN1c2ccccc2Sc2ccc(Cl)cc21` (stereo not drawn) displayed a TGI of over 10 µM.

In the case of `O=C(CCCCCCC(=O)Nc1ccc(N(CCCl)CCCl)cc1)NO`, the GI50 was 1.64 µM and the TGI is 4.74 µM.

In the case of `CN1CC[C@@]2(c3cccc(O)c3)CC(=O)/C(=C/c3ccccc3)[C@H]1C2`, the concentration for total growth inhibition (TGI) was 20.5 µM.

As to `O=C(N/N=C(/c1ccccc1)C(F)(F)F)c1ccncc1`, the TGI is over 100 µM.

`CCCc1[nH]c(SCCCCCCCCSc2nc(-c3ccc(F)cc3)c(CCC)[nH]2)nc1-c1ccc(F)cc1` gave a total growth inhibition concentration (TGI) of over 100 µM.

For the origin of these results see PubChem BioAssay (NCI).
